# Assays:
# [1] = biological target: human mitochondrial RNA-dependent RNA polymerase (POLRMT) (Homo sapiens, UniProt O00411); test: Incorporation of nucleotide analog triphosphates by human mitochondrial RNA polymerase; format: biochemical
# Method: The incorporation of these analogs by human mitochondrial RNA-dependent RNA polymerase (POLRMT) were determined according to Arnold et al. (Sensitivity of Mitochondrial Transcription and Resistance of RNA Polymerase II Dependent Nuclear Transcription to Antiviral Ribonucleotides. PLoS Pathog., 2012, 8, e1003030).
# [2] = Storage stability of Compound 1 forms and amorphous salts at 25° C./60% RH for 14 days (HPLC, observation); details: for Stability on storage: 14 days (2 weeks) at 25° C./60% RH
# Method: This initial characterization was followed by storage at 25° C./60% relative humidity (RH) for 14 days with analysis by HPLC and XRPD after 7 and 14 days. FIG. 4A is the XRPD after 14 days at 25° C./60% (RH).
# The samples were then frozen with the solvent removed by lyophilization.
# The samples were then subjected to storage at 25° C./60% relative humidity (RH) for 14 days with analysis by HPLC and XRPD after 7 (FIG. 4B) and 14 days (FIG. 5A).
# GT1 HCV [3] = test: Single ascending dose study of Compound 1-A in GT1-HCV infected patients (Part B); format: in vivo, human; details: GT1-HCV infected patients, Compound 1-A 300 mg (second 300 mg line), median (range)
# Method: Subjects in Part B received a single dose of Compound 1-A in the fasting state. Patients were confined to the clinic from Day −1 to Day 6.
# Part B was initiated after the safety (through Day 5) and plasma pharmacokinetic (through 24 h) data review from Cohort 3a in Part A. Available safety data (through Day 5) and pharmacokinetic data (through 24 h) was reviewed for the first cohort in Part B (Cohort 1b) before enrolling subsequent Part B cohorts. Subsequent Part B cohorts were only dosed following review of available safety and pharmacokinetic data from the respective doses in Part A as well as available safety (through Day 5) from the prior Part B cohorts.
# Patients infected with HCV were treatment-naïve, non-cirrhotic GT1-infected subjects with a viral load of ≥5 log10 IU/mL.
# Baseline was defined as the mean of Day −1 and Day 1 (pre-dose). […] The mean maximum HCV RNA reduction 24 hours post-dose following a single 300 mg dose was 1.7 log10 IU/mL and this compares to a −2 log 10 IU/mL reduction after 1 day of 400 mg of sofosbuvir monotherapy in GT1a HCV-infected subjects. The mean maximum HCV RNA reduction 24 hours post-dose following a single 100 mg dose was 0.8 log10 IU/mL. The mean 10 maximum HCV RNA reduction was 2.2 log10 IU/mL following a single 400 mg dose.
# [4] = Plasma profiles of Compound 1 and metabolite 1-7 after single oral dose of Compound 1-A, Sprague-Dawley rats; format: in vivo; details: rat, single oral dose of Compound 1-A 500 mg/kg (0.5% CMC, 0.5% Tween 80 in water)
# [5] = Plasma profiles of Compound 1 and metabolite 1-7 after single oral doses of Compound 1-A, cynomolgus monkeys; format: in vivo; details: monkey
# GT3 HCV = test: 600 mg QD for 7 days in non-cirrhotic GT3 HCV-infected patients (Part D); format: in vivo, human; details: 600 mg QD, Part D
# Method: (§1) Doses were administered as the Compound 1-A salt base. The free base Compound 1 equivalent is often given in parenthesis.
# (§2) Part C was a randomized, double-blind, placebo-controlled MAD study divided into three cohorts. […] The dose escalation only proceeded following satisfactory review of the data.
# (§3) HCV-infected patients were treatment-naïve with HCV RNA ≥5 log 10 IU/mL. HCV RNA was quantified using COBAS® AmpliPrep TaqMAN® v2.0 with LLQ of 15 IU/mL. Plasma drug levels were measured using LC-MS/MS. […] Mean ages of enrolled subjects were 44, 39, and 56 years in the non-cirrhotic GT1b 600 mg dose cohort, non-cirrhotic GT3 cohort, and the cirrhotic cohort, respectively.
# GT1, GT2, or GT3 HCV = test: 600 mg QD for 7 days in Child-Pugh A cirrhotic patients with GT1, GT2 or GT3 HCV (Part E); format: in vivo, human
# Method: Doses were administered as the Compound 1-A salt base. The free base Compound 1 equivalent is often given in parenthesis. […]
# as §3
# [6] = Single ascending dose study of Compound 1-A in healthy volunteers (Part A); format: in vivo, human; details: healthy subjects, single dose of Compound 1-A 400 mg, median (range)
# Method: Compound 1-A was tested in a single ascending dose (SAD) study to measure its safety, tolerability, and pharmacokinetic in healthy subjects (Part A). Part A was a randomized, double-blind, placebo-controlled SAD study. Healthy subjects in Part A received a single dose of Compound 1-A or placebo in the fasting state. Subjects were confined to the clinic from Day −1 to Day 6.
# Dosing in each cohort was staggered such that 2 subjects (1 active:1 placebo) were evaluated for 48 hours after dosing before the remainder of the cohort was dosed. Each cohort received Compound 1-A in ascending order. Dosing of sequential cohorts occurred based on review of available safety data (through Day 5) and plasma pharmacokinetic data (through 24 h) of the prior cohort.
# As pharmacokinetic and safety data emerged from prior cohorts, doses evaluated in Cohorts 3a-4a were adjusted by increments no more than 100 mg.
# Healthy volunteers in the Part A portion of the study were male and female subjects between the ages of 18 and 65. Active and placebo recipients were pooled within each Part A cohort to preserve the study blind.
# GT1 HCV [7] = test: Multiple dose study, 7 days QD, non-cirrhotic GT1 HCV-infected patients (Part C); format: in vivo, human
# Method: as §1, §2, §3
# [8] = Three-part study (Parts C, D, E) of Compound 1-A: overall safety/tolerability and pharmacokinetics; format: in vivo, human; details: for AUC: human, plasma, oral, Part C
# Method: as §2
# HCV-infected patients were treatment-naïve with HCV RNA ≥5 log 10 IU/mL. […] Plasma drug levels were measured using LC-MS/MS.
# [9] = tested on: replicons containing the NS5B sequences from HCV patient plasma samples (GT1a, 1b, 2a, 2b, 3a-1, 3a-2, 4a and 4d); test: Replicons containing NS5B sequences from HCV patient plasma samples (clinical isolates); format: cell-based; details: GT1, GT3, and GT4 clinical isolates, nucleoside equivalent
# HCV = details: cited from earlier work
# [10] = incorporation by human mitochondrial RNA polymerase
# [11] = single oral dose of Compound 1-A 30 mg/kg (powder in capsules)
# [12] = single oral dose of Compound 1-A 100 mg/kg (powder in capsules)
# [13] = single oral dose of Compound 1-A 300 mg/kg (powder in capsules)
# human mitochondrial RNA-dependent RNA polymerase (POLRMT), sequence (O00411 42-1230): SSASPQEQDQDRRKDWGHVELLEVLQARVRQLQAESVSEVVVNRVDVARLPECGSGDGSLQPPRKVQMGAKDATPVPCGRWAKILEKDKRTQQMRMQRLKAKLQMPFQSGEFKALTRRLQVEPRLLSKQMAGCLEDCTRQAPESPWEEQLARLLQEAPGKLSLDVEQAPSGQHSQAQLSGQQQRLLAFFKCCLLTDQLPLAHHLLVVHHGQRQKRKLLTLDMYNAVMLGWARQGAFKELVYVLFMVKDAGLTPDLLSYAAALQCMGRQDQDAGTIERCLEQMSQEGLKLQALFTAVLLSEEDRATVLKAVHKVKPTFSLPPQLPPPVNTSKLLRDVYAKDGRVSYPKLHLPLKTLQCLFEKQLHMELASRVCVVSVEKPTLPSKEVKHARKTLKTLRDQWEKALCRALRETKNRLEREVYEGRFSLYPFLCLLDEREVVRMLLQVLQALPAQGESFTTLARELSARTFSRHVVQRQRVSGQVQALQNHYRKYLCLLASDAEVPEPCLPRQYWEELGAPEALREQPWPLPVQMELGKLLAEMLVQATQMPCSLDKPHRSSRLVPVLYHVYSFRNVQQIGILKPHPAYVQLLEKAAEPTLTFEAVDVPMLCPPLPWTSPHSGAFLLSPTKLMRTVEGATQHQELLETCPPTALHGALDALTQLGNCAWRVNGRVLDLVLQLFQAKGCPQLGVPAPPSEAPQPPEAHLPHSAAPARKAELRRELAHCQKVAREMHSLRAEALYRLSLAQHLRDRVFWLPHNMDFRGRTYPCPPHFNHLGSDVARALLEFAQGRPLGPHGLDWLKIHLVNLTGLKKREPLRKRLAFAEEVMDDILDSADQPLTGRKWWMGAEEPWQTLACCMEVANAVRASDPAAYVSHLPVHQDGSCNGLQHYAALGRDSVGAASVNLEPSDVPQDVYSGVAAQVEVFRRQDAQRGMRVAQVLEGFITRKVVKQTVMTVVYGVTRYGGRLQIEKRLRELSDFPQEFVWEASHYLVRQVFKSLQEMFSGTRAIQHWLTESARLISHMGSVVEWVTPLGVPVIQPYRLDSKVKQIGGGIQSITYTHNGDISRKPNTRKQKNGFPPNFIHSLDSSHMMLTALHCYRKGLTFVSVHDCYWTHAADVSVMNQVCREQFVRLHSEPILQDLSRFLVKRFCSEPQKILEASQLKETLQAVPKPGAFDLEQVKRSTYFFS
structure (smiles),measurement,setting,value
C[C@@]1(O)[C@H](O)[C@@H](COP(=O)(O)OP(=O)(O)OP(=O)(O)O)O[C@H]1n1cnc2c(=O)[nH]c(N)nc21 [2′-C-methyl GTP],Kpol,[1]; [10],0.051 s⁻¹
C[C@@]1(F)[C@H](O)C(CO[P@@](=O)(O)OP(=O)(O)OP(=O)(O)O)O[C@H]1n1ccc(=O)[nH]c1=O (stereo partly drawn) [2′-deoxy-2′-F-2′-C-methyl UTP],Kpol,[1]; [10],0.00034 s⁻¹
"CNc1nc(N)nc2c1ncn2[C@@H]1O[C@H](CO[P@@](=O)(N[C@@H](C)C(=O)OC(C)C)Oc2ccccc2)[C@@H](O)[C@@]1(C)F [Sample 1-1, isopropyl((S)-(((2R,3R,4R,5R)-5-(2-amino-6-(methylamino)-9H-purin-9-yl)-4-fluoro-3-hydroxy-4-methyltetrahydrofuran-2-yl)methoxy)(phenoxy)phosphoryl)-L-alaninate]",HPLC,[2]; 0 days at 25° C./60% RH,98.6
same,Observation,[2]; 0 days at 25° C./60% RH,White solid
same,HPLC,[2]; 7 days at 25° C./60% RH,98.7
same,Observation,[2]; 7 days at 25° C./60% RH,White solid
same,Stability on storage,[2],stable
same,HPLC,[2]; 14 days at 25° C./60% RH,98.5
same,Observation,[2]; 14 days at 25° C./60% RH,White solid
"CNc1nc(N)nc2c1ncn2[C@@H]1O[C@H](CO[P@@](=O)(N[C@@H](C)C(=O)OC(C)C)Oc2ccccc2)[C@@H](O)[C@@]1(C)F [Sample 1-2, isopropyl((S)-(((2R,3R,4R,5R)-5-(2-amino-6-(methylamino)-9H-purin-9-yl)-4-fluoro-3-hydroxy-4-methyltetrahydrofuran-2-yl)methoxy)(phenoxy)phosphoryl)-L-alaninate]",HPLC,[2]; 0 days at 25° C./60% RH,99.1
same,Observation,[2]; 0 days at 25° C./60% RH,White solid
same,HPLC,[2]; 7 days at 25° C./60% RH,99.2
same,Observation,[2]; 7 days at 25° C./60% RH,White solid
same,Stability on storage,[2],stable
same,HPLC,[2]; 14 days at 25° C./60% RH,99.0
same,Observation,[2]; 14 days at 25° C./60% RH,White solid
CNc1nc(N)nc2c1ncn2[C@@H]1O[C@H](CO[P@@](=O)(N[C@@H](C)C(=O)OC(C)C)Oc2ccccc2)[C@@H](O)[C@@]1(C)F [Sample 1-3],HPLC,[2]; 0 days at 25° C./60% RH,99.7
same,Observation,[2]; 0 days at 25° C./60% RH,White solid
same,HPLC,[2]; 7 days at 25° C./60% RH,99.6
same,Observation,[2]; 7 days at 25° C./60% RH,White solid
same,HPLC,[2]; 14 days at 25° C./60% RH,99.4
same,Observation,[2]; 14 days at 25° C./60% RH,White solid
CNc1nc(N)nc2c1ncn2[C@@H]1O[C@H](CO[P@@](=O)(N[C@@H](C)C(=O)OC(C)C)Oc2ccccc2)[C@@H](O)[C@@]1(C)F [Sample 1-9],HPLC,[2]; 0 days at 25° C./60% RH,98.7
same,Observation,[2]; 0 days at 25° C./60% RH,White solid
same,HPLC,[2]; 7 days at 25° C./60% RH,98.1
same,Observation,[2]; 7 days at 25° C./60% RH,White solid
same,Stability on storage,[2],physically and chemically stable
same,HPLC,[2]; 14 days at 25° C./60% RH,96.4
same,Observation,[2]; 14 days at 25° C./60% RH,White solid
C[C@@]1(F)[C@H](O)[C@@H](COP(=O)(O)OP(=O)(O)OP(=O)(O)O)O[C@H]1n1cnc2c(=O)[nH]c(N)nc21 [metabolite 1-6],incorporation by human mitochondrial RNA polymerase,[1],poorly incorporated
same,Relative Efficiency,"[1]; (Kpol/Kd, app)analog nucleotide/(Kpol/Kd, app)natural nucleotide",2.2 × 10^−6
same,Kpol,[1]; [10],0.0017 s⁻¹
same,"Kpol/Kd, app",[1]; [10],8.3 M⁻¹ s⁻¹
same,Kd,"[1]; incorporation by human mitochondrial RNA polymerase, read-out: Kd, app",204 µM
"C[C@@]1(F)[C@H](O)[C@@H](CO)O[C@H]1n1cnc2c(=O)[nH]c(N)nc21 [metabolite 1-7, 2-amino-9-((2R,3R,4R,5R)-3-fluoro-4-hydroxy-5-(hydroxymethyl)-3-methyltetrahydrofuran-2-yl)-1,9-dihydro-6H-purin-6-one]",Tmax,GT1 HCV [3],4.0 (3.0-6.0) h
same,AUC0-last,[4],9640 ng·h/mL
same,Cmax,[4],541 ng/mL
same,T1/2,[4],15.3 h
same,Tmax,[4],6 to 8 h
same,AUC0-last,[5]; [11],1620 ng·h/mL
same,Cmax,[5]; [11],42.5 ng/mL
same,T1/2,[5]; [11],11.5 h
same,Tmax,[5]; [11],12 to 24 h
same,AUC0-last,[5]; [12],3030 ng·h/mL
same,Cmax,[5]; [12],131 ng/mL
same,T1/2,[5]; [12],15.0 h
same,Tmax,[5]; [12],4 h
same,AUC0-last,[5]; [13],3660 ng·h/mL
same,Cmax,[5]; [13],93.6 ng/mL
same,T1/2,[5]; [13],18.8 h
same,Tmax,[5]; [13],4 to 24 h
same,subjects achieving HCV RNA below the lower limit of quantitation,GT3 HCV,17%
same,subjects achieving HCV RNA below the lower limit of quantitation,"GT1, GT2, or GT3 HCV; 600 mg QD, Part E",17%
same,day on which steady state of concentrations was reached,"GT1, GT2, or GT3 HCV; subjects with cirrhosis",5 days
same,Tmax,[6],6.0 (4.0-8.0) h
same,subjects achieving HCV RNA <LOQ,"GT1 HCV [7]; 600 mg QD, non-cirrhotic GT1b, LOQ=15 IU/mL",50%
same,time of peak formation after dosing,GT1 HCV [7]; Part C,approximately 6 hours
same,T1/2 SS,"[8]; Part E, 600 mg/d (n=6), steady state",24.4 ± 9.81 h
same,AUC,"[8]; 150 mg/d, AUC Day 1 (AUC, for Metabolite 1-7), 150 mg/d (n=6), Day 1",800 ± 213 ng·h/mL
same,AUC,"[8]; 150 mg/d, AUC SS (AUC, for Metabolite 1-7), 150 mg/d (n=6), steady state",962 ± 409 ng·h/mL
same,AUC,"[8]; 300 mg/d, AUC Day 1 (AUC, for Metabolite 1-7), 300 mg/d (n=6), Day 1",1410 ± 220 ng·h/mL
same,AUC,"[8]; 300 mg/d, AUC SS (AUC, for Metabolite 1-7), 300 mg/d (n=6), steady state",1830 ± 453 ng·h/mL
same,food effect on total and trough exposure,[8]; in vivo,No food effect
CC(C)OC(=O)[C@H](C)N[P@](=O)(OC[C@H]1O[C@@H](n2ccc(=O)[nH]c2=O)[C@](C)(F)[C@@H]1O)Oc1ccccc1 [sofosbuvir],EC95,[9],greater than 100 ng/mL
same,HCV RNA reduction,"HCV; after 1 day of 400 mg monotherapy, GT1a HCV-infected subjects",−2 log 10 IU/mL
same,steady-state trough concentration,HCV; similar dosage form (400 mg QD),approximately 100 ng/mL
